# How the values were obtained:
# [1] = system: human sclera; conditions: scleral strips; 1 hour glutaraldehyde, 5 days glyceraldehydes, 30 minutes UVA for riboflavin/UVA; cited from earlier work
# [2] = system: peripapillary sclera; assay: Surface wave velocity (stiffness) of the peripapillary sclera of whole globes, Sonic Eye elastometer; set-up: species or system porcine; conditions: for Mean PPS Stiffness, After Glutaraldehyde Crosslinking: Example 2, GTA annular sponge on PS only ~30 min; for Stiffness of Peripapillary Sclera, Post-crosslinking Mean ± SD: 4% GTA on PS only 30 min
# Protocol: Surface wave velocity (SWV) is a measure of tissue stiffness, and is performed by detecting the velocity of an ultrasonic wave between 2 points (Sonic Eye, Priavision, Menlo Park, Calif.) (Dupps W J, et al., J Refract Surg; 23: 66-75 (2007)). 19 porcine eyes were divided into 2 groups. In group 1 (6 eyes), the SWV across the exposed optic nerve/lamina cribrosa complex (ON/LCC) was initially measured at the eyes' physiologic IOP and at 100 mmHg. The porcine globes were cannulated with IV tubing to facilitate the change in IOP. In group 2 (13 eyes), the pre-treatment SWV was measured across the same region and atop the peri-papillary sclera, after which both regions were treated with riboflavin 1%, Q 5 min×6, and UVA irradiation (˜365 nm at 3 mW/cm^2) for 30 min per eye. The SWV was then re-measured in each eye at the pre-treatment IOP and at 100 mmHg.
# An annular sponge soaked in GTA was exposed to the peripapillary sclera for ˜30 minutes, and not the ON/LCC. Measurements were repeated as above, but also along each quadrant of peripapillary sclera to ensure uniformity and symmetry of crosslinking around the ON/LCC. The results are summarized as follows:
# Eighteen porcine globes were divided evenly into 3 groups. The optic nerves were transected to expose the ON/LC, and each globe was infused through an in-line pressure transducer for direct IOP control. Surface wave velocity, a non-destructive measure of tissue stiffness, was measured across the ON/LC and PS before and after collagen crosslinking at IOP of 10 and 30 mmHg (groups 1 and 2) and at each globe's preinflation IOP and 80 mmHg (group 3). In group 3, papillary strain was measured by analyzing the displacement of fiducial marks immediately adjacent to the ON/LC using digital photography.
# Surface wave velocity (SWV) is a measure of tissue stiffness that has been used in dermatologic applications to measure age-related changes (Potts R O, et al., J Invest Dermatol.; 82(1):97-100 (1984); Potts R O, et al., J Biomech.; 16(6):365-372 (1983); Davis B R, et al., Exp Gerontol; 24(3):201-210 (1989)), softening effects of tissue hydration and skin creams (Vexler A, et al., J Invest Dermatol; 113(5):732-739 (1999)), and sclerosing effects of radiation on breast skin (Gorodetsky R, et al., Int J Radiat Oncol Biol Phys.; 45(4):893-900 (1999)). When acoustic waves in the 0.5 to 30 kHz frequency range are used, propagation speed in skin is related to the density and stiffness of the tissue (Pereira J M, et al., J Biomech.; 23(8):745-751 (1990)). A prototype handheld ocular surface elastometer (Sonic Eye, Priavision, Menlo Park, Calif.) with an operating frequency within this range (4 kHz) and a fixed 4.5 mm wave propagation distance has been described in detail elsewhere (Dupps W J Jr, et al., J Refract Surg.; 23(1):66-75 (2007)). The Sonic Eye was used in this study as a non-destructive means of measuring local in situ tissue stiffness across and around the optic nerve head.
# Eighteen porcine eyes were obtained from a local abattoir (Heffelfingers Meats, Inc., Jeromesville, Ohio) and were used within 24 hours postmortem. The optic nerves were dissected under microscopic visualization to expose the ON/LC (FIG. 1). […] Replicate SWV measurements were obtained at a rate of 1 per second with a triggering foot pedal to produce at least 5 measurements that were subsequently averaged for each region of interest. A PC software interface converted the time-of-flight data to velocity in meters per second (m/s), and the velocity data were exported to Excel (v. 11, SP2; Microsoft Corp, Redmond, Wash.) and Minitab (v. 14.20; Minitab Inc, State College, Pa.) for statistical analysis.
# Three experimental groups of 6 eyes each were defined. In group 1, SWV across the optic nerve/lamina cribrosa complex and peripapillary scleral regions of interest were measured at 10 and 30 mmHg to represent a physiological range of pressures. […]
smiles,measurement,setting,value
"O=CCCCC=O [GTA, glutaraldehyde]",Rise in human scleral stress (rigidity),[1],122%
same,"Mean PPS Stiffness, After Glutaraldehyde Crosslinking",[2]; mean IOP 3 mmHg,83.6 m/s
same,"Mean PPS Stiffness, After Glutaraldehyde Crosslinking",[2]; mean IOP 80 mmHg,97.9 m/s
same,"Stiffness of Peripapillary Sclera, Post-crosslinking Mean ± SD","[2]; Example 3 Group 2, High IOP 30 mmHg",197.0±35.6 m/s
same,"Stiffness of Peripapillary Sclera, Post-crosslinking Mean ± SD","[2]; Example 3 Group 2, Low IOP 10 mmHg",148.4±43.0 m/s
same,"Stiffness of Peripapillary Sclera, Post-crosslinking Mean ± SD","[2]; Example 3 Group 3, High IOP 80 mmHg",190.2±45.8 m/s
same,"Stiffness of Peripapillary Sclera, Post-crosslinking Mean ± SD","[2]; Example 3 Group 3, Low IOP = pre-inflation 2-4 mmHg",149.9±35.7 m/s

# Source: US8580789B2, “Treating glaucoma” (The Cleveland Clinic Foundation, priority 2007, dated 2013)
